Test results reported in the supplement of paper PMC11061612.

What was measured:
[1] = tested on: NCCIT (Other Solid Carcinomas); experiment: Bliss excess, mean over the matrix (fraction); higher = more synergy
Summary of the method: (§1)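 Cell lines grown in DMEM/F12 or RPMI with 10% FBS were plated in 1536-well plates and held 24 hours at 37°C, 5% CO2 before 72 hours of exposure to two-drug dose matrices, with DMSO typically at 0.2%. CellTiter-Glo 2.0 luminescence gave viability, which was converted to inhibition. Vehicle wells were set to 0 and blank wells to 1. Combination Emax is the second-highest inhibition in the matrix, and Bliss excess is the observed combination effect minus the expected EA + EB − EA·EB, where EA and EB are the single-agent effects.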

M059J (Glioblastoma) [2] = experiment: as above
Summary of the method: as §1

[3] = tested on: OCI-AML3 (Acute Myeloid Leukemia); experiment: as above
Summary of the method: as §1

[4] = tested on: COR-L279 (Small Cell Lung Carcinoma); experiment: as above
Summary of the method: as §1

[5] = tested on: NCI-H3122 (Lung Adenocarcinoma); experiment: as above
Summary of the method: as §1

[6] = tested on: DMS-114 (Small Cell Lung Carcinoma); experiment: as above
Summary of the method: as §1

[7] = tested on: KU812 (Chronic Myelogenous Leukemia); experiment: as above
Summary of the method: as §1

[8] = tested on: MOG-G-CCM (Low Grade Glioma); experiment: as above
Summary of the method: as §1

[9] = tested on: NCI-H526 (Small Cell Lung Carcinoma); experiment: as above
Summary of the method: as §1

[10] = tested on: CW-2 (Colorectal Carcinoma); experiment: as above
Summary of the method: as §1

[11] = tested on: SK-GT-4 (Esophageal Adenocarcinoma); experiment: as above
Summary of the method: as §1

SJSA-1 (Osteosarcoma) [12] = experiment: as above
Summary of the method: as §1

[13] = tested on: KYSE-270 (Esophageal Squamous Cell Carcinoma); experiment: as above
Summary of the method: as §1

[14] = tested on: NCI-H520 (Squamous Cell Lung Carcinoma); experiment: as above
Summary of the method: as §1

[15] = tested on: NCI-H929 (Plasma Cell Myeloma); experiment: as above
Summary of the method: as §1

[16] = tested on: MN-60 (B-Lymphoblastic Leukemia); experiment: as above
Summary of the method: as §1

[17] = tested on: ST486 (Burkitt's Lymphoma); experiment: as above
Summary of the method: as §1

[18] = tested on: VMRC-RCZ (Kidney Carcinoma); experiment: as above
Summary of the method: as §1

[19] = tested on: T-T (Esophageal Squamous Cell Carcinoma); experiment: as above
Summary of the method: as §1

NCI-H2731 (Mesothelioma) [20] = experiment: as above
Summary of the method: as §1

[21] = tested on: NCCIT (Other Solid Carcinomas); experiment: combination Emax (second highest fraction inhibited in the dose matrix, 72 h); higher = more inhibition; extreme values may be limits of the assay
Summary of the method: as §1

M059J (Glioblastoma) [22] = experiment: as above
Summary of the method: as §1

[23] = tested on: OCI-AML3 (Acute Myeloid Leukemia); experiment: as above
Summary of the method: as §1

[24] = tested on: COR-L279 (Small Cell Lung Carcinoma); experiment: as above
Summary of the method: as §1

[25] = tested on: NCI-H3122 (Lung Adenocarcinoma); experiment: as above
Summary of the method: as §1

[26] = tested on: DMS-114 (Small Cell Lung Carcinoma); experiment: as above
Summary of the method: as §1

[27] = tested on: KU812 (Chronic Myelogenous Leukemia); experiment: as above
Summary of the method: as §1

[28] = tested on: MOG-G-CCM (Low Grade Glioma); experiment: as above
Summary of the method: as §1

[29] = tested on: NCI-H526 (Small Cell Lung Carcinoma); experiment: as above
Summary of the method: as §1

[30] = tested on: CW-2 (Colorectal Carcinoma); experiment: as above
Summary of the method: as §1

[31] = tested on: SK-GT-4 (Esophageal Adenocarcinoma); experiment: as above
Summary of the method: as §1

SJSA-1 (Osteosarcoma) [32] = experiment: as above
Summary of the method: as §1

[33] = tested on: KYSE-270 (Esophageal Squamous Cell Carcinoma); experiment: as above
Summary of the method: as §1

[34] = tested on: NCI-H520 (Squamous Cell Lung Carcinoma); experiment: as above
Summary of the method: as §1

[35] = tested on: NCI-H929 (Plasma Cell Myeloma); experiment: as above
Summary of the method: as §1

[36] = tested on: MN-60 (B-Lymphoblastic Leukemia); experiment: as above
Summary of the method: as §1

[37] = tested on: ST486 (Burkitt's Lymphoma); experiment: as above
Summary of the method: as §1

[38] = tested on: VMRC-RCZ (Kidney Carcinoma); experiment: as above
Summary of the method: as §1

[39] = tested on: T-T (Esophageal Squamous Cell Carcinoma); experiment: as above
Summary of the method: as §1

NCI-H2731 (Mesothelioma) [40] = experiment: as above
Summary of the method: as §1
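For Bliss excess, mean over the matrix in this document: after 72 h of two-drug dosing.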

SMILES: C=CCn1c(=O)c2cnc(Nc3ccc(N4CCN(C)CC4)cc3)nc2n1-c1cccc(C(C)(C)O)n1 [AZD1775] + Nc1ccn([C@@H]2O[C@H](CO)[C@@H](O)C2(F)F)c(=O)n1 [Gemcitabine] (first compound max 1 µM, partner max 0.3 µM)
- Bliss excess [1]: 0.0864
- Bliss excess (M059J (Glioblastoma) [2]): 0.0175
- Bliss excess [3]: 0.0084
- Bliss excess [4]: 0.0556
- Bliss excess [5]: -0.0379
- Bliss excess [6]: 0.0581
- Bliss excess [7]: -0.0107
- Bliss excess [8]: 0.0455
- Bliss excess [9]: 0.0642
- Bliss excess [10]: -0.0511
- Bliss excess [11]: 0.006
- Bliss excess (SJSA-1 (Osteosarcoma) [12]): -0.0822
- Bliss excess [13]: 0.0411
- Bliss excess [14]: 0.0314
- Bliss excess [15]: 0.0302
- Bliss excess [16]: -0.0157
- Bliss excess [17]: 0.0019
- Bliss excess [18]: 0.0417
- Bliss excess [19]: 0.0692
- Bliss excess (NCI-H2731 (Mesothelioma) [20]): 0.0305
- combination Emax [21]: 0.899
- combination Emax (M059J (Glioblastoma) [22]): 0.802
- combination Emax [23]: 0.95
- combination Emax [24]: 0.987
- combination Emax [25]: 0.803
- combination Emax [26]: 0.643
- combination Emax [27]: 0.836
- combination Emax [28]: 0.778
- combination Emax [29]: 0.968
- combination Emax [30]: 0.559
- combination Emax [31]: 0.44
- combination Emax (SJSA-1 (Osteosarcoma) [32]): 0.656
- combination Emax [33]: 0.983
- combination Emax [34]: 0.871
- combination Emax [35]: 0.906
- combination Emax [36]: 0.653
- combination Emax [37]: 0.985
- combination Emax [38]: 0.481
- combination Emax [39]: 0.521
- combination Emax (NCI-H2731 (Mesothelioma) [40]): 0.533

SMILES: Cc1c2c(nn1C)CSCc1cc(n(C)n1)CSc1cc(c3ccccc3c1)OCCCc1c(C(=O)O)n(C)c3c-2c(Cl)ccc13 [AZD5991] + Nc1ccn([C@@H]2O[C@H](CO)[C@@H](O)C2(F)F)c(=O)n1 [Gemcitabine] (first compound max 1 µM, 7x7, partner max 0.3 µM)
- Bliss excess [1]: -0.0617
- Bliss excess (M059J (Glioblastoma) [2]): -0.0325
- Bliss excess [3]: 0.0245
- Bliss excess [4]: -0.012
- Bliss excess [5]: 0.0092
- Bliss excess [6]: 0.07
- Bliss excess [7]: -0.0709
- Bliss excess [8]: -0.0059
- Bliss excess [9]: 0.0249
- Bliss excess [10]: -0.0677
- Bliss excess [11]: -0.042
- Bliss excess (SJSA-1 (Osteosarcoma) [12]): -0.0319
- Bliss excess [13]: -0.0129
- Bliss excess [14]: -0.0389
- Bliss excess [15]: 0.0087
- Bliss excess [16]: -0.0611
- Bliss excess [17]: 0.0089
- Bliss excess [18]: -0.001
- Bliss excess [19]: 0.058
- Bliss excess (NCI-H2731 (Mesothelioma) [20]): -0.0359
- combination Emax [21]: 0.725
- combination Emax (M059J (Glioblastoma) [22]): 0.681
- combination Emax [23]: 1
- combination Emax [24]: 0.975
- combination Emax [25]: 0.922
- combination Emax [26]: 0.908
- combination Emax [27]: 0.842
- combination Emax [28]: 0.523
- combination Emax [29]: 0.914
- combination Emax [30]: 0.613
- combination Emax [31]: 0.31
- combination Emax (SJSA-1 (Osteosarcoma) [32]): 0.725
- combination Emax [33]: 0.965
- combination Emax [34]: 0.811
- combination Emax [35]: 1
- combination Emax [36]: 0.518
- combination Emax [37]: 0.904
- combination Emax [38]: 0.392
- combination Emax [39]: 0.929
- combination Emax (NCI-H2731 (Mesothelioma) [40]): 0.358

SMILES: CN(CCO)CC[C@H](CSc1ccccc1)Nc1ccc(S(=O)(=O)NC(=O)c2ccc(N3CCC([C@@H](O)c4ccccc4-c4ccc(Cl)cc4)CC3)cc2)cc1S(=O)(=O)C(F)(F)F [AZD4320] + Nc1ccn([C@@H]2O[C@H](CO)[C@@H](O)C2(F)F)c(=O)n1 [Gemcitabine] (first compound max 1 µM, 7x7, partner max 0.3 µM)
- Bliss excess [1]: -0.0058
- Bliss excess (M059J (Glioblastoma) [2]): -0.0021
- Bliss excess [3]: 0.0034
- Bliss excess [4]: 0.0843
- Bliss excess [5]: -0.0298
- Bliss excess [6]: 0.0444
- Bliss excess [7]: -0.0788
- Bliss excess [8]: -0.0629
- Bliss excess [9]: 0.0952
- Bliss excess [10]: -0.058
- Bliss excess [11]: -0.0288
- Bliss excess (SJSA-1 (Osteosarcoma) [12]): 0.0439
- Bliss excess [13]: -0.0293
- Bliss excess [14]: -0.0178
- Bliss excess [15]: -0.0176
- Bliss excess [16]: -0.0618
- Bliss excess [17]: -0.0194
- Bliss excess [18]: 0.0103
- Bliss excess [19]: 0.0546
- Bliss excess (NCI-H2731 (Mesothelioma) [20]): 0.0222
- combination Emax [21]: 0.187
- combination Emax (M059J (Glioblastoma) [22]): 0.837
- combination Emax [23]: 0.984
- combination Emax [24]: 1
- combination Emax [25]: 0.846
- combination Emax [26]: 0.524
- combination Emax [27]: 0.954
- combination Emax [28]: 0.597
- combination Emax [29]: 0.993
- combination Emax [30]: 0.557
- combination Emax [31]: 0.31
- combination Emax (SJSA-1 (Osteosarcoma) [32]): 0.952
- combination Emax [33]: 0.89
- combination Emax [34]: 0.894
- combination Emax [35]: 0.9
- combination Emax [36]: 0.493
- combination Emax [37]: 0.972
- combination Emax [38]: 0.589
- combination Emax [39]: 0.476
- combination Emax (NCI-H2731 (Mesothelioma) [40]): 0.44
